Key:
[1] = Human wound healing model (skin blister); format: in vivo
[2] = test system: PBMCs isolated from normal donors; test: Gene expression in PBMCs by quantitative RT-PCR (Light Cycler System); format: cell-based, human
[3] = test system: monocytes, macrophages and lymphocytes; test: In vitro experiments in monocytes, macrophages and lymphocytes; format: cell-based
SARS-CoV-2 [4] = format: cell-based
[5] = Humoral and cellular immunity (Jerne plaque and footpad swelling tests); format: in vivo
[6] = test system: radiation-induced, chemical-induced and metastatic malignant and benign tumors; test: Antitumor effects against induced and metastatic tumors; format: in vivo
[7] = Blood cell effects in rats, including total body X-irradiation; format: in vivo
SARS-CoV-2 [8] = format: cell-based; conditions: commercially available nasal spray tested at 5-fold dilution
HIV = format: cell-based; conditions: in vitro

Substance: tetrachlorodecaoxide [TCDO]
- number of macrophages infiltrating the skin blister [1]: increased the number of macrophages infiltrating the skin blister
- CD14 cell (macrophage) inflammatory gene expression [2]: short-term upregulation
- inducible gene expression related to macrophage dependent T-cell activation (IL-2, IL-4, IL-17) [2]: notable inhibition
- antigen presentation [3]: decrease antigen presentation
- macrophage tumor necrosis factor (TNF) expression [3]: decrease macrophage tumor necrosis factor (TNF) expression
- macrophage-fibroblast cooperation [3]: enhance macrophage-fibroblast cooperation
- oxidative burst in monocytes [3]: stimulate an oxidative burst in monocytes
- phagocytosis [3]: increase phagocytosis
- cytopathic effect and SARS-CoV-2 infection of Vero E6 cells (SARS-CoV-2 [4]): significantly reduced
- humoral and cellular immune responses ([5]; Jerne plaque and footpad swelling tests): increased both the humoral and cellular immune responses
- proportions of T-helper and T-suppressor/cytotoxic cells ([5]; spleen and thymus): altered proportions of T-helper and T-suppressor/cytotoxic cells
- direct antitumor effects [6]: displayed direct antitumor effects
- proportion of granulocytes, PBMCs and LGLs [7]: increased the proportion of granulocytes, peripheral blood monocytes (PBMCs) and large granular lymphocytes (LGLs)
- erythropoiesis ([7]; after total body X-irradiation): stimulated erythropoiesis
- inhibition of viral propagation (SARS-CoV-2 [8]): highly potent
- anti-HIV properties (HIV): displayed anti-HIV properties
